From patent US20230339939A1 (Bayer Aktiengesellschaft, priority 2020, published 2023)
Read-outs that look alike come from different tables or passages of the source.

Key:
Type in all cases: biochemical
[1] = biological target: wild-type Epidermal Growth Factor Receptor (EGFR) (Homo sapiens (Human), UniProt P00533); assay: WT-EGFR Kinase Assay (TR-FRET, 2 mM ATP)
From the text: Inhibitory activity of compounds of the present invention against wild-type Epidermal Growth Factor Receptor (EGFR) was quantified employing the TR-FRET based EGFR assay as described in the following paragraphs.
Recombinant fusion protein of N-terminal Glutathion-S-Transferase (GST) and a fragment of human EGFR (amino acids R669 to A1210), expressed in Sf9 insect cells and purified via affinity chromatography using Glutathion Sepharose as described above, was used as kinase. As substrate for the kinase reaction the biotinylated peptide biotin-Ahx-[…] (C-terminus in amide form) was used which can be purchased e.g. form the company Biosynthan GmbH (Berlin-Buch, Germany).
For the assay 50 nl of a 100 fold concentrated solution of the test compound in DMSO was pipetted into either a black low volume 384 well microtiter plate or a black 1536 well microtiter plate (both Greiner Bio-One, Frickenhausen, Germany), 2 μL of a solution of EGFR in aqueous assay buffer [50 mM Hepes pH 7.0, 10 mM MgCl2, 1 mM dithiothreitol, 0.5 mM EGTA, 0.3 mM activated sodium ortho-vanadate, 0.005% (w/v) bovine serum albumin, 0.005% (v/v) Tween-20] were added and the mixture was incubated for 15 min at 22° C. to allow pre-binding of the test compounds to the enzyme before the start of the kinase reaction. […] The concentration of EGFR was adjusted depending of the activity of the enzyme lot and was chosen appropriate to have the assay in the linear range, typical concentration was 7.6 pg/μL. The reaction was stopped by the addition of 3 μL of a solution of HTRF detection reagents (83.3 nM streptavidine-XL665 [Cisbio Bioassays, Codolet, France] and 1.67 nM PT66-Tb-Cryptate, a terbium-cryptate labelled anti-phospho-tyrosine antibody from Cisbio Bioassays [instead of the PT66-Tb-cryptate PT66-Eu-Chelate from Perkin Elmer can also be used]) in an aqueous EDTA-solution (133.3 mM EDTA, 0.2% (w/v) bovine serum albumin in 50 mM HEPES pH 7.5).
The resulting mixture was incubated 1 h at 22° C. to allow the binding of the biotinylated phosphorylated peptide to the streptavidine-XL665 and the PT66-Tb-Cryptate. Subsequently the amount of phosphorylated substrate was evaluated by measurement of the resonance energy transfer from the PT66-Tb-Cryptate to the streptavidine-XL665. Therefore, the fluorescence emissions at 620 nm and 665 nm after excitation at 337 nm were measured in a HTRF reader, e.g. a Pherastar (BMG Labtechnologies, Offenburg, Germany) or a Viewlux (Perkin-Elmer). The ratio of the emissions at 665 nm and at 622 nm was taken as the measure for the amount of phosphorylated substrate.

CSNK1A1 [2] = biological target: T1, CSNK1A1 (Homo sapiens (Human), UniProt P48729); assay: CSNK1A1 High ATP Assay (ADP-Glo, 1 mM ATP); details: median, read-out: CSNK1A1 high ATP assay IC50 [mol/l] (median)
T1 sequence (P48729 whole entry): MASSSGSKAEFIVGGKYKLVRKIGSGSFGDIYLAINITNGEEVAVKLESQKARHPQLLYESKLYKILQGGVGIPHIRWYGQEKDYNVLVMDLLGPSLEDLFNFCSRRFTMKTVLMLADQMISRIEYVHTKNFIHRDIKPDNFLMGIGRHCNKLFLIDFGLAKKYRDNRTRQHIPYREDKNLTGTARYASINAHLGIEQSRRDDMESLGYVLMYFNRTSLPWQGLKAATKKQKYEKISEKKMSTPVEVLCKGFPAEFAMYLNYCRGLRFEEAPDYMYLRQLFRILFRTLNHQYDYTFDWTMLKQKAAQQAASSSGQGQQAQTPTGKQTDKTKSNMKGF
Description: CSNK1A1-inhibitory activity of compounds of the present invention in presence of 1 mM adenosine-tri-phosphate (ATP) was quantified employing the CSNK1A1-high-ATP-assay as described in the following paragraphs. In essence, the enzyme activity is measured by quantification of the adenosine-di-phosphate (ADP), which is generated as a co-product of the enzyme reaction, via the “ADP-Glo™ Kinase Assay” kit from the company Promega. This detection system works as follows: In a first step the ATP not consumed in the kinase reaction is quantitatively converted to cAMP employing an adenylate cyclase (“ADP-Glo-reagent”), then the adenylate cyclase is stopped and the ADP generated in the kinase reaction converted to ATP which generates in a luciferase-based reaction a glow-luminescence signal (“Kinase Detection Reagent”).
(§1) Recombinant fusion protein of N-terminal Glutathion-S-Transferase (GST) and full-length human CSNK1A1, expressed by baculovirus infected insect cells and purified via Glutathion affinity chromatography, was purchased from Life Technologies (product no. PV4174) and used as enzyme. As substrate for the kinase reaction the biotinylated peptide biotin-Ahx-KRRRAL-pS-VASLPGL (C-terminus in amide form) was used which can be purchased e.g. from the company Biosyntan (Berlin-Buch, Germany).
For the assay 50 nl of a 100 fold concentrated solution of the test compound in DMSO was pipetted into a white low volume 384-well microtiter plate (Greiner Bio-One, Frickenhausen, Germany), 2 μL of a solution of CSNK1A1 in aqueous assay buffer [50 mM HEPES pH 7.5, 10% (v/v) glycerol, 10 mM MgCl2, 50 mM NaCl, 1 mM dithiothreitol, 0.01% (w/v) bovine serum albumin, 0.01% (v/v) Triton X-100] were added and the mixture was incubated for 15 min at 22° C. to allow pre-binding of the test compounds to the enzyme before the start of the kinase reaction. […] The concentration of CSNK1A1 was adjusted depending of the activity of the enzyme lot and was chosen appropriate to have the assay in the linear range, a typical concentration is about 0.4 ng/μL. The reaction was stopped by the addition of 2.5 μL of “ADP-Glo-reagent” (1:1.5 fold diluted with water) and the resulting mixture was incubated at 22° C. for 1 h to convert the ATP not consumed in the kinase reaction completely […]. Subsequently 2.5 μL of the “kinase detection reagent” (1.2 fold more concentrated than recommended by the producer) were added, the resulting mixture was incubated at 22° C. for 1 h and then the luminescence measured with a suitable measurement instrument (e.g. Viewlux™ from Perkin-Elmer). The amount of emitted light was taken as a measure for the amount of ADP generated and thereby for the activity of the CSNK1A1.

CSNK1A1 [3] = biological target: T1, CSNK1A1; assay: CSNK1A1 Assay 2 (ADP-Glo, 1 μM ATP, substrate biotin-Ahx-KRRRAL-pS-VASLPGL); details: median, read-out: CSNK1A1 Assay 2 IC50 [mol/l] (median)
Description: CSNK1A1-inhibitory activity of compounds of the present invention in presence of 1 μM adenosine-tri-phosphate (ATP) was quantified employing the CSNK1A1 assay as described in the following paragraphs. In essence, the enzyme activity is measured by quantification of the adenosine-di-phosphate (ADP), which is generated as a co-product of the enzyme reaction, via the “ADP-Glo™ Kinase Assay” kit from the company Promega. This detection system works as follows: In a first step the ATP not consumed in the kinase reaction is quantitatively converted to cAMP employing an adenylate cyclase (“ADP-Glo-reagent”), then the adenylate cyclase is stopped and the ADP generated in the kinase reaction converted to ATP which generates in a luciferase-based reaction a glow-luminescence signal (“Kinase Detection Reagent”).
as §1
For the assay 50 nl of a 100 fold concentrated solution of the test compound in DMSO was pipetted into a white 1536-well microtiter plate (Greiner Bio-One, Frickenhausen, Germany), 2 μL of a solution of CSNK1A1 in aqueous assay buffer [50 mM HEPES pH 7.5, 10% (v/v) glycerol, 10 mM MgCl2, 50 mM NaCl, 1 mM dithiothreitol, 0.01% (w/v) bovine serum albumin, 0.01% (v/v) Triton X-100] were added and the mixture was incubated for 15 min at 22° C. to allow pre-binding of the test compounds to the enzyme before the start of the kinase reaction. […] The concentration of CSNK1A1 was adjusted depending of the activity of the enzyme lot and was chosen appropriate to have the assay in the linear range, a typical concentrations are about 0.0375 ng/μL. The reaction was stopped by the addition of 2.5 μL of “ADP-Glo-reagent” (1:1.5 fold diluted with water) and the resulting mixture was incubated at 22° C. for 1 h to convert the ATP not consumed in the kinase reaction completely […]. Subsequently 2.5 μL of the “kinase detection reagent” (1.2 fold more concentrated than recommended by the producer) were added, the resulting mixture was incubated at 22° C. for 1 h and then the luminescence measured with a suitable measurement instrument (e.g. Viewlux™ from Perkin-Elmer). The amount of emitted light was taken as a measure for the amount of ADP generated and thereby for the activity of the CSNK1A1.

CSNK1D = CSNK1D (Homo sapiens (Human), UniProt P48730); assay: CSNK1D Assay (ADP-Glo, 1 μM ATP); details: median, read-out: CSNK1D IC50 [mol/l] (median)
Chain of CSNK1D (P48730 whole entry): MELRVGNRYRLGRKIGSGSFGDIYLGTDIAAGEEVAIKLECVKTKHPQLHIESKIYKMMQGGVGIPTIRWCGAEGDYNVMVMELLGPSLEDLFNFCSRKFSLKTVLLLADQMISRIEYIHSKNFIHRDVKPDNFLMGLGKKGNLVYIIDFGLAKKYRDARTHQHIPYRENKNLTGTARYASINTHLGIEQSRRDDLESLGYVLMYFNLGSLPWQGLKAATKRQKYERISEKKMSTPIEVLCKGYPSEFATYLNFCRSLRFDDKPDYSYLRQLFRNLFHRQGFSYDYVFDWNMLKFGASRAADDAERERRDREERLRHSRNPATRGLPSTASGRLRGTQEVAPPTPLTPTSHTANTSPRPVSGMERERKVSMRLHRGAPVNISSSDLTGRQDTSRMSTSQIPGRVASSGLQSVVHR
Description: CSNK1D-inhibitory activity of compounds of the present invention in presence of 1 μM adenosine-tri-phosphate (ATP) was quantified employing the CSNK1 D assay as described in the following paragraphs. In essence, the enzyme activity is measured by quantification of the adenosine-di-phosphate (ADP), which is generated as a co-product of the enzyme reaction, via the “ADP-Glo™ Kinase Assay” kit from the company Promega. This detection system works as follows: In a first step the ATP not consumed in the kinase reaction is quantitatively converted to cAMP employing an adenylate cyclase (“ADP-Glo-reagent”), then the adenylate cyclase is stopped and the ADP generated in the kinase reaction converted to ATP which generates in a luciferase-based reaction a glow-luminescence signal (“Kinase Detection Reagent”).
as §1, with “CSNK1D,” for “CSNK1A1,”, “PV3665)” for “PV4174)”, “Btn-Ahx-[…]” for “biotin-Ahx-KRRRAL-pS-VASLPGL”
For the assay 50 nl of a 100 fold concentrated solution of the test compound in DMSO was pipetted into a white 1536-well microtiter plate (Greiner Bio-One, Frickenhausen, Germany), 2 μL of a solution of CSNK1D in aqueous assay buffer [50 mM HEPES pH 7.5, 10% (v/v) glycerol, 10 mM MgCl2, 50 mM NaCl, 1 mM dithiothreitol, 0.01% (w/v) bovine serum albumin, 0.01% (v/v) Triton X-100] were added and the mixture was incubated for 15 min at 22° C. to allow pre-binding of the test compounds to the enzyme before the start of the kinase reaction. […] The concentration of CSNK1D was adjusted depending of the activity of the enzyme lot and was chosen appropriate to have the assay in the linear range, a typical concentration is about 0.5 ng/μL. The reaction was stopped by the addition of 2.5 μL of “ADP-Glo-reagent” (1:1.5 fold diluted with water) and the resulting mixture was incubated at 22° C. for 1 h to convert the ATP not consumed in the kinase reaction completely […]. Subsequently 2.5 μL of the “kinase detection reagent” (1.2 fold more concentrated than recommended by the producer) were added, the resulting mixture was incubated at 22° C. for 1 h and then the luminescence measured with a suitable measurement instrument (e.g. Viewlux™ from Perkin-Elmer). The amount of emitted light was taken as a measure for the amount of ADP generated and thereby for the activity of the CSNK1D.

[4] = read-out: EGFR Wildtype 2 mM ATP IC50 [mol/l] (median)

Chain of wild-type Epidermal Growth Factor Receptor (EGFR) (P00533 669-1210): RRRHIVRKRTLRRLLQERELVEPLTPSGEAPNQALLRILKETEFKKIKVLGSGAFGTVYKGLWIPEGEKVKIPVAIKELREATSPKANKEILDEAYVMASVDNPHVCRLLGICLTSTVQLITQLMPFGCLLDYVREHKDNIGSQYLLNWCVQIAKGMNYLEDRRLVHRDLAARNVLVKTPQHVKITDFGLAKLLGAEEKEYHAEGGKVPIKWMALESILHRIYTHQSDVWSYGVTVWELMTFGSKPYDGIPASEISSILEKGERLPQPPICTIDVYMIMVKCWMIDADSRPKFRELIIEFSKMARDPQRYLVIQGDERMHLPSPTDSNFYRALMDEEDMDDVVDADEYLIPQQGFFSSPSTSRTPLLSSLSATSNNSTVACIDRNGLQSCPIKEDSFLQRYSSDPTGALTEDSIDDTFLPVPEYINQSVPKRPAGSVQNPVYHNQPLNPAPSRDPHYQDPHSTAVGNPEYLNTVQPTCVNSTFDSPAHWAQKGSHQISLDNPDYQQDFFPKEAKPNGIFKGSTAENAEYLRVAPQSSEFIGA

| SMILES | IC50 [1, 4] | IC50 (CSNK1A1 [2]) | IC50 (CSNK1A1 [3]) | IC50 ([1]; median) | IC50 (CSNK1D) |
| --- | --- | --- | --- | --- | --- |
| O=C(Cc1ccc(F)cc1)Nc1cc(-c2[nH]c3nccnc3c2-c2ccccc2)ccn1 [Example 18, 2-(4-fluorophenyl)-N-[4-(7-phenyl-5H-pyrrolo[2,3-b]pyrazin-6-yl)pyridin-2-yl]acetamide] | > 20000 nM | 260 nM | 3.33 nM |  |  |
| CC(C(=O)Nc1cc(-c2[nH]c3cccnc3c2-c2ccccc2)ccn1)c1ccc(F)cc1 (single isomer, unassigned; (+)) [Example 13, (+)-2-(4-fluorophenyl)-N-[4-(3-phenyl-1H-pyrrolo[3,2-b]pyridin-2-yl)pyridin-2-yl]propanamide] | > 20000 nM | 91.6 nM | 1.66 nM |  |  |
| CC(C(=O)Nc1cc(-c2[nH]c3cccnc3c2-c2ccccc2)ccn1)c1ccc(F)cc1 (single isomer, unassigned; (-)) [Example 12, (−)-2-(4-fluorophenyl)-N-[4-(3-phenyl-1H-pyrrolo[3,2-b]pyridin-2-yl)pyridin-2-yl]propanamide] |  | 2510 nM | 37 nM | > 20000 nM |  |
| CC(C(=O)Nc1cc(-c2[nH]c3ccc(F)nc3c2-c2ccc(F)cn2)ccn1)c1ccc(F)cc1 (single isomer, unassigned; (-)) [Example 49, (−)-N-{4-[5-fluoro-3-(5-fluoropyridin-2-yl)-1H-pyrrolo[3,2-b]pyridin-2-yl]pyridin-2-yl}-2-(4-fluorophenyl)propanamide] |  | 2580 nM | 34.5 nM |  | 33.1 nM |
| O=C(Cc1ccc(F)cc1)Nc1cc(-c2[nH]c3ccnnc3c2-c2ccccc2)ccn1 [Example 20, 2-(4-fluorophenyl)-N-[4-(7-phenyl-5H-pyrrolo[3,2-c]pyridazin-6-yl)pyridin-2-yl]acetamide] | > 20000 nM | 77.9 nM | 1.3 nM |  |  |
| O=C(Cc1ccc(F)cc1)Nc1cc(-c2[nH]c3nccnc3c2-c2ccccn2)ccn1 [Example 19, 2-(4-fluorophenyl)-N-{4-[7-(pyridin-2-yl)-5H-pyrrolo[2,3-b]pyrazin-6-yl]pyridin-2-yl}acetamide] | > 20000 nM | 33.1 nM | 1.02 nM |  |  |
| O=C(Cc1ccc(F)cc1)Nc1cc(-c2[nH]c3ccc(F)nc3c2-c2ccc(F)cn2)ccn1 [Example 50, N-{4-[5-fluoro-3-(5-fluoropyridin-2-yl)-1H-pyrrolo[3,2-b]pyridin-2-yl]pyridin-2-yl}-2-(4-fluorophenyl)acetamide] |  | 41.6 nM | 1.42 nM |  | 3.15 nM |
| CC(C(=O)Nc1cc(-c2[nH]c3ccc(F)nc3c2-c2ccc(F)cn2)ccn1)c1ccc(F)cc1 (single isomer, unassigned; (+)) [Example 48, (+)-N-{4-[5-fluoro-3-(5-fluoropyridin-2-yl)-1H-pyrrolo[3,2-b]pyridin-2-yl]pyridin-2-yl}-2-(4-fluorophenyl)propanamide] |  | 36.1 nM | 1.69 nM |  | 3.96 nM |
